# Measured values: US11840686B2, “Modulation of prekallikrein (PKK) expression” (Ionis Pharmaceuticals, Inc., priority 2013, dated 2023)
# Strand notation (5' to 3'): a small letter for the sugar, then the base; units joined by * are phosphorothioate-linked, units joined directly phosphodiester-linked; [ ] holds rarer units or linkages, { } end groups; capitals alone tell only the bases. e = 2'-O-(2-methoxyethyl) (MOE); [5mC] = 5-methylcytosine; d = 2'-deoxy (DNA)
# What was measured:
# [1] = system: thrombus formation (platelet factor-4 mRNA); assay: FeCl3-induced inferior vena cava thrombosis model, PF-4 quantification (Example 19); format: in vivo, mouse; conditions: BALB/c mice; for PF-4 (percentage compared to PBS controls): FeCl3 vena cava
# Description: Three groups of 8 male BALB/c mice were treated with 10 mg/kg, 20 mg/kg, or 40 mg/kg of ISIS 482584, administered subcutaneously twice a week for 3 weeks (weekly doses of 20 mg/kg, 40 mg/kg, or 80 mg/kg). Two control groups of 12 BALB/c mice each were treated with PBS, administered subcutaneously twice a week for 3 weeks. Two days after the last dose of antisense oligonucleotide or PBS, mice from all groups were anesthetized with 150 mg/kg ketamine mixed with 10 mg/kg xylazine, administered by intraperitoneal injection. Thrombus formation was induced with FeCl3 in all groups of anesthetized mice except the first control group.
# In mice undergoing FeCl3 treatment, thrombus formation was induced by applying a piece of filter paper (2×4 mm) pre-saturated with 10% FeCl3 solution directly on the vena cava. After 3 minutes of exposure, the filter paper was removed. Thirty minutes after the filter paper application, a fixed length of the vein containing the thrombus was dissected out for platelet analysis. Liver was collected for RNA analysis.
# Real-time PCR quantification of platelet factor-4 (PF-4) was used to quantify platelets in the vena cava as a measure of thrombus formation. PF-4 mRNA levels were measured using the murine primer probe set mPF4_LTS_00086 (forward sequence […], designated herein as SEQ ID NO: 2240; reverse sequence CGCAGCGACGCTCATG, designated herein as SEQ ID NO: 2241; probe sequence […], designated herein as SEQ ID NO: 2242). Results are presented as a percentage of PF-4 in ISIS oligonucleotide-treated mice, as compared to the two PBS-treated control groups. […] Therefore, reduction of PKK by the compound provided herein is useful for inhibiting thrombus formation.
# [2] = system: vascular permeability induced by ISIS 461756; assay: C1-INH antisense oligonucleotide-induced vascular permeability, Evans Blue OD600 (Example 18); format: in vivo, mouse
# Description: Vascular permeability induced by ISIS 461756, an antisense oligonucleotide which targets murine C1 inhibitor mRNA, increases vascular permeability in mice and replicates the pathology of hereditary angioedema. The effect of ISIS 482584 on this model was evaluated.
# One group of 8 mice was treated with 40 mg/kg ISIS 482584 administered subcutaneously twice a week for 3 weeks (weekly dose of 80 mg/kg). A second group of 8 mice was treated with 40 mg/kg of the control oligonucleotide, ISIS 141923, administered subcutaneously twice a week for 3 weeks (weekly dose of 80 mg/kg). A third group of 8 mice was treated with PBS administered subcutaneously twice a week for 3 weeks. On day 14, all the groups were treated with 12.5 mg/kg ISIS 461756 administered subcutaneously twice a week for 3 weeks (weekly dose of 25 mg/kg). A control group of mice was treated with PBS administered subcutaneously twice a week for 3 weeks but was not administered ISIS 461756.
# At the end of the treatment period, all the groups were injected with 30 mg/kg of Evans Blue solution into the tail vein. The mice were sacrificed 30 min after the Evans Blue solution administration and colons, feet, ears, and intestines were harvested. The liver was also harvested for RNA analysis.
# The harvested tissues from the feet, colon, and intestines were placed in formamide solution overnight to leach out the Evans Blue dye. The formamide solution containing feet tissue was heated to 55° C. and left overnight. The color intensity of the dye-infused formamide solution was then measured at OD600 nm. The data is presented in Table 80 as percent increase or reduction compared to the PBS control not treated with ISIS 461756.
# [3] = system: Factor 12; assay: Factor 12 activation in mouse plasma, Spectrozyme FXIIa amidolytic assay (Example 17); format: in vivo; conditions: for % F12 activation compared to the PBS control: 3 weeks, mouse plasma
# Description: The effect of antisense inhibition of PKK mRNA on Factor 12 protein activation was evaluated.
# Group 1 consisted of 8 mice and was treated with PBS administered subcutaneously twice a week for 3 weeks. No other treatment was administered to Group 1 which served as a control group to measure Factor 12 activation.
# Groups 2, 3, 4, 5, and 6 consisted of 8 mice each and were treated with 2.5 mg/kg, 5 mg/kg, 10 mg/kg, 20 mg/kg, or 40 mg/kg (corresponding to 5 mg/kg, 10 mg/kg, 20 mg/kg, 40 mg/kg, or 80 mg/kg per week), respectively of ISIS 482584 administered subcutaneously twice a week for 3 weeks. Groups 2-6 served as the treatment groups for measuring the effect of ISIS 482584 on Factor 12 activation.
# At the end of the treatment period, plasma was harvested from the mice for the Spectrozyme® Factor 12a based amidolytic assay for Factor 12 in plasma.
# Plasma (5 μL) was added to 85 μL of PBS with 1 μg/ml dextran sulfate (500 kDa) in a 96 well polypropelene microplate and the solution was incubated for 5 minutes at room temperature. Spectrozyme® FXIIa (10 μL of a 2 mM solution) and 0.2 mM KALLISTOP™ solution was added and the absorbance kinetic was measured at 405 nm. Factor 12 activation was measured in the linear phase of absorbance accumulation. The results are presented in Table 78 as a percentage of Factor 12 activation measured in the PBS control sample.
# [4] = Evans Blue OD600, all groups ISIS 461756 25 mg/kg/wk, pretreatment PBS or oligonucleotide 80 mg/kg/wk
substance,measurement,setting,value
"ISIS 482584: 5-10-5 MOE gapmer targeting murine PKK, GGCATATTGGTTTTTGGAAT; SEQ ID NO: 2244 (antisense eG*eG*e[5mC]*eA*eT*dA*dT*dT*dG*dG*dT*dT*dT*dT*dT*eG*eG*eA*eA*eT)",PF-4 (percentage compared to PBS controls),[1]; 20 mg/kg/wk sc 3 weeks,62%
same,PF-4 (percentage compared to PBS controls),[1]; 40 mg/kg/wk sc 3 weeks,34%
same,PF-4 (percentage compared to PBS controls),[1]; 80 mg/kg/wk sc 3 weeks,25%
same,PF-4 in vena cava,"[1]; 10-40 mg/kg s.c. twice a week for 3 weeks, vs PBS control",significant reduction of PF-4
same,vascular permeability induced by ISIS 461756,[2]; 40 mg/kg s.c. twice a week for 3 weeks,prevented vascular permeability induced by ISIS 461756
same,"Percent change in vascular permeability compared to the untreated PBS control, Colon",[2]; [4],−23%
same,"Percent change in vascular permeability compared to the untreated PBS control, Feet",[2]; [4],2%
same,"Percent change in vascular permeability compared to the untreated PBS control, Intestines",[2]; [4],−25%
same,% F12 activation compared to the PBS control,[3]; 5 mg/kg/wk sc,82%
same,% F12 activation compared to the PBS control,[3]; 10 mg/kg/wk sc,63%
same,% F12 activation compared to the PBS control,[3]; 20 mg/kg/wk sc,47%
same,% F12 activation compared to the PBS control,[3]; 40 mg/kg/wk sc,24%
same,% F12 activation compared to the PBS control,[3]; 80 mg/kg/wk sc,14%
same,activation of Factor 12,[3]; mouse plasma after 3 weeks s.c. treatment,decreased activation of Factor 12
